Source: patent US20250264483A1, “IDENTIFICATION OF PROTHROMBOTIC CONDITIONS” (Sydney Local Health District, priority 2020, published 2025)

Columns and labels:
healthy donor platelets [1] = assay: Procoagulant platelet flow cytometry assay (GSAO+/CD62P+), healthy donor whole blood with HIT patient plasma; type: cell-based, human; settings: for difference in proportion of PP with HIT+ plasma compared to HIT−, no plasma or autologous plasma: agonist alone, absence of exogenous heparin (SFLLRN 5 μM, ADP 20 μM, CRP-xL 2 μg/mL; FIG. 2)
Procedure: (§1) The GSAO-based whole blood PP flow cytometry assay established by the inventors^4 was modified to incorporate patient plasma. Citrated whole blood (13 μL) was incubated with and without agonists, unfractionated heparin (Pfizer) and plasma (5 μL) for 10 minutes with final concentrations of 2.5 mM Gly-Pro-Arg-Pro peptide (Sigma-Aldrich) and 2.5 mM calcium chloride. […] In some experiments, blood was pre-treated with 10 μg/mL IV.3 (StemCell Technologies), a monoclonal antibody against FcγRIIa, for 15 minutes prior to the reaction. Samples were incubated with antibodies to CD45, CD41a, CD62P—or isotype control, and GSAO or GSCA, and fixed before analysis on a BD LSRFortessa X-20.
Representative flow cytometry plots from a single donor comparing no plasma with HIT− or HIT+ plasma indicate that addition of HIT+ plasma altered the sub-population profile of the platelets with a marked increase in procoagulant (GSAO+/CD62P+) platelets (FIG. 1A). […] There was also a smaller but statistically significant increase seen with HIT− plasma compared to no plasma (53.63±6.82 vs 42.05±4.24, P<0.05) (FIG. 1B).

healthy donor platelets [2] = assay: Procoagulant platelet flow cytometry assay, healthy donor whole blood with VITT patient plasma; type: cell-based, human; settings: for proportion of procoagulant platelets: mean±SD
healthy donor platelets [3] = assay: Procoagulant platelet flow cytometry assay, healthy donor whole blood with APS patient plasma; type: cell-based, human; settings: for Average fold-change in procoagulant platelets: APS patient plasma
Procedure: as §1
Citrated whole blood (13 μL) was incubated with platelet agonists and plasma (5 μL) from healthy donors or patients, for 10 minutes with final concentrations of 2.5 mM Gly-Pro-Arg-Pro peptide (Sigma-Aldrich) and 2.5 mM calcium chloride in a 50 μL reaction. […] The reaction was stopped by further dilution with HBSS, followed by staining with antibodies to CD45 (HI30) (StemCell Technologies), CD41a (HIP8) (BD Biosciences), CD62P (Psel.KO2.3) (eBioscience)—or isotype control (eBioscience), and GSAO or control compound GSCA (4-(N—(S-glutathionylacetyl)amino)benzoic acid). Then, samples were fixed with PAMFix (Platelet Solutions Ltd), centrifuged and resuspended, prior to analysis on a BD LSRFortessa X-20 or BD FACSCanto II cytometer with acquisition of 10000 platelet events. Statistical analyses were performed using GraphPad Prism 9, with statistical significance set at p<0.05.

[4] = cited from earlier work
[5] = HIT+ plasma, agonist, no heparin (FIGS. 3B, D), mean±SEM
[6] = HIT+ plasma, combined sample + agonist + therapeutic concentration heparin / high heparin control sample
[7] = HIT+ plasma, combined sample + agonist + therapeutic concentration heparin / no heparin control sample

Q: With `Nc1ncnc2c1ncn2[C@@H]1O[C@H](COP(=O)(O)OP(=O)(O)O)[C@@H](O)[C@H]1O` [ADP, adenosine diphosphate] as the molecule, how does the “proportion of PP” value (healthy donor platelets [1]; [5]) read?
A: 5.66±0.79

Q: What about the “Average fold-change in procoagulant platelets” value (from here on “Average fold-change”) (healthy donor platelets [1]; [6]) of the same molecule?
A: 5.5 fold

Q: What about the “Average fold-change” value (healthy donor platelets [1]; [7]) of the same molecule?
A: 4.4 fold

Q: What about the “difference in proportion of PP with HIT+ plasma compared to HIT−, no plasma or autologous plasma” value (healthy donor platelets [1]) of the same molecule?
A: no difference

Q: For SFLLRN, which “proportion of PP” value (healthy donor platelets [1]; [5]) is on record?
A: 11.19±3.23

Q: And the “Average fold-change” value (healthy donor platelets [1]; [6])?
A: 8.5 fold

Q: And the “Average fold-change” value (healthy donor platelets [1]; [7])?
A: 3.7 fold

Q: What about the “difference in proportion of PP with HIT+ plasma compared to HIT−, no plasma or autologous plasma” value (healthy donor platelets [1]) of the same molecule?
A: no difference

Q: And the PP proportion (healthy donor platelets [2]; SFLLRN 5 μM, ELISA false positive plasma (FIG. 9C))?
A: 3.93±0.78%

Q: What about the “proportion of procoagulant platelets” value (healthy donor platelets [2]; SFLLRN 5 μM, HIT-like VITT (heparin-enhancing VITT) plasma (FIG. 8B)) of the same molecule?
A: 23.60±8.768

Q: And the “proportion of procoagulant platelets” value (healthy donor platelets [2]; SFLLRN 5 μM, VITT negative plasma (FIG. 8B))?
A: 2.988±0.9564

Q: And the “proportion of procoagulant platelets” value (healthy donor platelets [2]; SFLLRN 5 μM, VITT plasma (FIG. 8B))?
A: 16.34±13.74

Q: And the PP proportion (healthy donor platelets [2]; SFLLRN 5 μM, VITT-negative plasma (FIG. 9C))?
A: 4.50±2.09%

Q: And the PP proportion (healthy donor platelets [2]; SFLLRN 5 μM, healthy donor blood, no plasma (FIG. 9C))?
A: 3.86±0.97%

Q: And the “proportion of procoagulant platelets” value (healthy donor platelets [2]; SFLLRN 5 μM, no plasma (FIG. 8B))?
A: 3.194±0.8185

Q: And the PP proportion (healthy donor platelets [2]; SFLLRN 5 μM, plasma from healthy individuals (FIG. 9C))?
A: 3.57±1.36%

Q: What about the “change in procoagulant response between patient and autologous plasma” value (healthy donor platelets [3]; APS plasma vs autologous plasma (FIG. 13A, C)) of the same molecule?
A: No significant change

Q: Which “occurrence of HIT in patients receiving the drug” value [4] does the source give for heparin here?
A: up to 3%

Q: And the “proportion of PP” value (healthy donor platelets [1]; HIT+ plasma, ADP 20 μM, high-dose heparin 100 U/mL)?
A: 5.16±0.52

Q: And the “proportion of PP” value (healthy donor platelets [1]; HIT+ plasma, ADP 20 μM, therapeutic-concentration heparin 0.5 U/mL)?
A: 25.22±5.94

Q: What about the “proportion of PP” value (healthy donor platelets [1]; HIT+ plasma, CRP-xL 2 μg/mL, high-dose heparin 100 U/mL) of the same molecule?
A: 11.70±2.63

Q: What about the “proportion of PP” value (healthy donor platelets [1]; HIT+ plasma, CRP-xL 2 μg/mL, therapeutic-concentration heparin 0.5 U/mL) of the same molecule?
A: 26.87±3.58

Q: What about the “proportion of PP” value (healthy donor platelets [1]; HIT+ plasma, SFLLRN 5 μM, high-dose heparin 100 U/mL) of the same molecule?
A: 4.39±0.35

Q: What about the “proportion of PP” value (healthy donor platelets [1]; HIT+ plasma, SFLLRN 5 μM, therapeutic-concentration heparin 0.5 U/mL) of the same molecule?
A: 36.53±7.50

Q: What about the “difference in PP formation in response to SFLLRN, ADP or CRP-xL” value (healthy donor platelets [1]; HIT− plasma, therapeutic or high heparin concentrations (FIGS. 3A, C, E)) of the same molecule?
A: no difference

Q: What about the “difference in PP proportion compared to basal levels without exogenous plasma” value (healthy donor platelets [1]; heparin 0.5 U/mL or 100 U/mL, HIT+ or HIT− plasma, no platelet agonist (FIG. 2)) of the same molecule?
A: no differences

Q: What about the PP response (healthy donor platelets [2]; high-dose heparin 100 U/mL, HIT plasma, SFLLRN 5 μM (FIG. 10B)) of the same molecule?
A: 3.48±1.02%

Q: And the PP response (healthy donor platelets [2]; high-dose heparin 100 U/mL, VITT plasma, SFLLRN 5 μM)?
A: 3.54±1.41%

Q: And the PP response (healthy donor platelets [2]; low-dose heparin 0.5 U/mL, VITT plasma, SFLLRN 5 μM (FIG. 10A))?
A: 12.48±12.84%

Q: For low-molecular-weight heparin, which “occurrence of HIT in patients receiving the drug” value [4] is on record?
A: 0.2%

Q: Which “proportion of PP” value (healthy donor platelets [1]; HIT+ plasma, absence of heparin (FIG. 6A, D), thrombin 1 U/mL, CRP-xL 2 μg/mL) does the source give for “thrombin: bovine thrombin (Sigma-Aldrich), platelet agonist” here?
A: 18.86±3.94

Q: What about the “proportion of PP” value (healthy donor platelets [1]; HIT− plasma, absence of heparin (FIG. 6A, D), thrombin 1 U/mL, CRP-xL 2 μg/mL) of the same molecule?
A: 19.55±4.16

Q: And the “proportion of PP” value (healthy donor platelets [1]; no plasma, absence of heparin (FIG. 6A, D), thrombin 1 U/mL, CRP-xL 2 μg/mL)?
A: 4.16±0.24

Q: And the “Average fold-change” value (healthy donor platelets [3]; combined sample / healthy control sample)?
A: 5.7 fold

Q: What about the “Average fold-change” value (healthy donor platelets [3]; combined sample / healthy control sample + autologous plasma) of the same molecule?
A: 2.1 fold

Q: What about the “increase in procoagulant platelet proportions relative to no plasma” value (healthy donor platelets [3]; autologous plasma, thrombin stimulation (FIG. 13B)) of the same molecule?
A: 0.3-5.5%

Q: What about the “increase in procoagulant platelet response” value (healthy donor platelets [3]; plasma from an APS patient collected during plasma exchange, thrombin 1 U/mL, CRP-xL 2 μg/mL (FIG. 14)) of the same molecule?
A: 4.5 fold
